Measured values reported in patent US9371320B2, “Heterocyclic compound” (TAKEDA PHARMACEUTICAL COMPANY LIMITED, priority 2012, dated 2016).

Experiments:
Tyk2 = target: T1, Tyk2 (Homo sapiens, UniProt P29597); assay: Tyk2 enzyme inhibition test (LANCE method); format: biochemical; settings: test compound 1 μM; read-out: Inhibitory rate (%) Tyk2 1 μM
T1 construct: purchased Invitrogen
Procedure, shortened: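 Recombinant Tyk2 (375 ng/mL stock) with ULight-JAK1 peptide (300 nM stock) and ATP (30 μM stock) in HEPES pH 7.5/MgCl2/EGTA/DTT buffer, 1 h at room temperature. Stopped with EDTA plus Eu-anti-phosphotyrosine antibody; TR-FRET read at 665 nm after 1 h. No-enzyme wells define 100% inhibition.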

JAK1 = target: T2, JAK1 (Homo sapiens, UniProt P23458); assay: JAK1 enzyme inhibition test (LANCE method); format: biochemical; settings: for inhibition at 1 µM: test compound 1 μM, read-out: Inhibitory rate (%) JAK1 1 μM; for inhibition at 10 µM: test compound 10 μM (Ex. 182-220), beside Tyk2 1 μM, read-out: Inhibitory rate (%) JAK1 10 μM
T2 construct: purchased Invitrogen
Procedure, shortened: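 TR-FRET (LANCE) kinase assay using JAK1 at 187.5 ng/mL, ULight-JAK1 peptide at 300 nM and ATP at 150 μM, given as solution concentrations before mixing. Buffer was 50 mM HEPES pH 7.5 with 10 mM MgCl2 and 2 mM DTT, and the reaction ran 1 h at room temperature. Eu anti-phosphotyrosine signal at 665 nm was expressed relative to a no-enzyme well, taken as 100% inhibition.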

T1 sequence (P29597 whole entry): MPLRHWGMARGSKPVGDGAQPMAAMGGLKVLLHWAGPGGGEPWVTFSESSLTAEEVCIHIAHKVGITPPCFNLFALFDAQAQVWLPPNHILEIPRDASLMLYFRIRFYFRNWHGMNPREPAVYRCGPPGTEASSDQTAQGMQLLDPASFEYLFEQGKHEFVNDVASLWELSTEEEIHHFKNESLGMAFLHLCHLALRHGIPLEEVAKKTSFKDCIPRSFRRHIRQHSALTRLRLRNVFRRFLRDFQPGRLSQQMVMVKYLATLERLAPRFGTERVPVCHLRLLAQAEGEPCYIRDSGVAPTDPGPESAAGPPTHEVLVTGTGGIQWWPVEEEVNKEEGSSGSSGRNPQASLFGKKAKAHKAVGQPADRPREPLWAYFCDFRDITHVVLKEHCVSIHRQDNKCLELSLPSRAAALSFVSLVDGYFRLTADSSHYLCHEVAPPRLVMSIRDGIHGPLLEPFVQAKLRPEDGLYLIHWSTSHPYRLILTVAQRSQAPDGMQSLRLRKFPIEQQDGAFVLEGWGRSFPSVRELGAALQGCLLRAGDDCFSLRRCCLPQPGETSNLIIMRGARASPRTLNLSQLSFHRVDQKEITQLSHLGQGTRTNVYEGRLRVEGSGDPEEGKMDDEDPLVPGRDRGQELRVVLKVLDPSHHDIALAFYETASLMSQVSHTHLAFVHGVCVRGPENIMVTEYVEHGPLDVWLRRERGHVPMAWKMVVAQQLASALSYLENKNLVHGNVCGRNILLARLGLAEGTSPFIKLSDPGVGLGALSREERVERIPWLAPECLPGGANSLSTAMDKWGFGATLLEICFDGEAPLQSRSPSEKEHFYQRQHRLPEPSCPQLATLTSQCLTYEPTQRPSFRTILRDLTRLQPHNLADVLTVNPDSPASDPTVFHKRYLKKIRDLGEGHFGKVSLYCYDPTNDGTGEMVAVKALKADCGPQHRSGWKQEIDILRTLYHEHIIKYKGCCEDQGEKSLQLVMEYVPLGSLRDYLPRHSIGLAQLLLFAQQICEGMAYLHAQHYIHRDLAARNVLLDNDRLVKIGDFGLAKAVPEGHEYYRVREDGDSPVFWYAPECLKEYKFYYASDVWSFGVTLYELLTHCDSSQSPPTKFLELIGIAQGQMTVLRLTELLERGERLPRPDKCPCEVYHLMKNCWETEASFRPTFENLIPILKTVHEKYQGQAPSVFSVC
T2 sequence (P23458 whole entry): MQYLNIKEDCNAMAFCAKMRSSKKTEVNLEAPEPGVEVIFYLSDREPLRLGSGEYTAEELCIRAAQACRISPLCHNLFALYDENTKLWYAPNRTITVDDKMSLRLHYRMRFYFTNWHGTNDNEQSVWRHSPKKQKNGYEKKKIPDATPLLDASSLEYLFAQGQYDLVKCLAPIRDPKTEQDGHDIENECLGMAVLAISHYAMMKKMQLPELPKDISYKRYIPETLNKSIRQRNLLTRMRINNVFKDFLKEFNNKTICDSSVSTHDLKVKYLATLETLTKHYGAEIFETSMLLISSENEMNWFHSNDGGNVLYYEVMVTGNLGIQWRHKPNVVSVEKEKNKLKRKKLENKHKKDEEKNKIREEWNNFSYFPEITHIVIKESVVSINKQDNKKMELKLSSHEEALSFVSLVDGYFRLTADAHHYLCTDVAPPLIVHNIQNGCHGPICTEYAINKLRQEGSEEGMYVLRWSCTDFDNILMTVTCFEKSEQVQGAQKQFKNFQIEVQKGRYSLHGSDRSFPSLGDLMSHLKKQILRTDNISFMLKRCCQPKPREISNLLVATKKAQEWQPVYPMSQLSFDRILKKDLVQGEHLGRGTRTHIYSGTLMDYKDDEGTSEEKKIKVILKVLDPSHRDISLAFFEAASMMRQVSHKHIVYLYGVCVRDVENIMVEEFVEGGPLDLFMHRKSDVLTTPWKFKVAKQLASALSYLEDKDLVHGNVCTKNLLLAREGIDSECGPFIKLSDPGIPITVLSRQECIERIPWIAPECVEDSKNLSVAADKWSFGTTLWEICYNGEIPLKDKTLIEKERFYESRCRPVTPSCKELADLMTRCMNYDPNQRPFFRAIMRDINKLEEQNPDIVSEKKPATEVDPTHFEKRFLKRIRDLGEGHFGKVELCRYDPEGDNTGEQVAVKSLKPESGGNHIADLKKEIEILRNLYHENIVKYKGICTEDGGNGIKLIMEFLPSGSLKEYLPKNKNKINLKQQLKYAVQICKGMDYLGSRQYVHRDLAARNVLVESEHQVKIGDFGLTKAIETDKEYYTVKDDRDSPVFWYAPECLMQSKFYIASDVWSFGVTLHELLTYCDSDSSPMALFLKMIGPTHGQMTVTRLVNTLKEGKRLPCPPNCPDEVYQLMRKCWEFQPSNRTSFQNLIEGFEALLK

Compound | inhibition at 1 µM (Tyk2) [%] | inhibition at 1 µM (JAK1) [%] | inhibition at 10 µM (JAK1) [%]
N#CCc1ccc(-c2nn(C3CCCC3)c3cc[nH]c(=O)c23)cc1 [Example 127, (4-(1-cyclopentyl-4-oxo-4,5-dihydro-1H-pyrazolo[4,3-c]pyridin-3-yl)phenyl)acetonitrile] | 97 | 99 | –
CCC(COC)n1cc(-c2ccc(S(N)(=O)=O)cc2)c2c(=O)[nH]ccc21 (stereo not drawn) [Example 17, 4-(1-(1-methoxybutan-2-yl)-4-oxo-4,5-dihydro-1H-pyrrolo[3,2-c]pyridin-3-yl)benzenesulfonamide] | 69 | 87 | –
N#Cc1c[nH]c(=O)c2c1c(C1CCCC1)cn2-c1csc(C(N)=O)c1 [Example 118, 4-(4-cyano-3-cyclopentyl-7-oxo-6,7-dihydro-1H-pyrrolo[2,3-c]pyridin-1-yl)thiophene-2-carboxamide] | 99 | 94 | –
N#Cc1c[nH]c(=O)c2c(-c3csc(CC(N)=O)c3)cn(C3CCCC3)c12 [Example 97, 2-(4-(7-cyano-1-cyclopentyl-4-oxo-4,5-dihydro-1H-pyrrolo[3,2-c]pyridin-3-yl)-2-thienyl)acetamide] | 99 | 97 | –
O=C1COCCN1c1ccc(-c2nn(-c3c(F)cccc3F)c3cc[nH]c(=O)c23)cc1 [Example 304, 1-(2,6-difluorophenyl)-3-(4-(3-oxomorpholin-4-yl)phenyl)-1,5-dihydro-4H-pyrazolo[4,3-c]pyridin-4-one] | 99 | 97 | –
Nc1cc(F)c(-n2nc(-c3ccc(S(N)(=O)=O)cc3)c3c(=O)[nH]ccc32)c(F)c1 [Example 303, 4-(1-(4-amino-2,6-difluorophenyl)-4-oxo-4,5-dihydro-1H-pyrazolo[4,3-c]pyridin-3-yl)benzenesulfonamide] | 100 | 99 | –
Cc1ccccc1-c1nn(-c2csc(C(N)=O)c2)c2c(=O)[nH]cc(C#N)c12 [Example 70, 4-(4-cyano-3-(2-methylphenyl)-7-oxo-6,7-dihydro-1H-pyrazolo[3,4-c]pyridin-1-yl)thiophene-2-carboxamide] | 88 | 41 | –
N#CCn1cc(-c2cn(C3CCCC3)c3c(C#N)c[nH]c(=O)c23)cn1 [Example 99, 3-(1-(cyanomethyl)-1H-pyrazol-4-yl)-1-cyclopentyl-4-oxo-4,5-dihydro-1H-pyrrolo[3,2-c]pyridine-7-carbonitrile] | 99 | 97 | –
NS(=O)(=O)c1ccc(-c2cn(CC(O)CO)c3cc[nH]c(=O)c23)cc1 (stereo not drawn) [Example 91, 4-(1-(2,3-dihydroxypropyl)-4-oxo-4,5-dihydro-1H-pyrrolo[3,2-c]pyridin-3-yl)benzenesulfonamide] | 92 | 19 | –
N#Cc1ccc(-c2nn(C3CCCC3)c3cc[nH]c(=O)c23)cc1 [Example 201, 4-(1-cyclopentyl-4-oxo-4,5-dihydro-1H-pyrazolo[4,3-c]pyridin-3-yl)benzonitrile] | 97 | – | 96
NC(=O)Cc1cccc(-c2nn(-c3c(F)cccc3F)c3c(Br)c[nH]c(=O)c23)c1 [Example 147, 2-(3-(7-bromo-1-(2,6-difluorophenyl)-4-oxo-4,5-dihydro-1H-pyrazolo[4,3-c]pyridin-3-yl)phenyl)acetamide] | 99 | 74 | –
O=c1[nH]cc(Cl)c2c1c(-c1ccc(N3CCCOCC3)cc1)nn2-c1c(F)cccc1F [Example 207, 7-chloro-1-(2,6-difluorophenyl)-3-(4-(1,4-oxazepan-4-yl)phenyl)-1,5-dihydro-4H-pyrazolo[4,3-c]pyridin-4-one] | 100 | – | 73
NS(=O)(=O)c1ccc(-c2nn(C3CCC(O)(c4ccccc4)CC3)c3cc[nH]c(=O)c23)cc1 (stereo not drawn) [Example 174, 4-(1-(4-hydroxy-4-phenylcyclohexyl)-4-oxo-4,5-dihydro-1H-pyrazolo[4,3-c]pyridin-3-yl)benzenesulfonamide] | 98 | 99 | –
N#CCc1ccc(-c2cn(C3CCOC3)c3cc[nH]c(=O)c23)cc1 (stereo not drawn) [Example 22, (4-(4-oxo-1-(tetrahydrofuran-3-yl)-4,5-dihydro-1H-pyrrolo[3,2-c]pyridin-3-yl)phenyl)acetonitrile] | 53 | 77 | –
NS(=O)(=O)c1ccc(-c2nn(-c3c(F)cccc3F)c3cc[nH]c(=O)c23)cc1 [Example 35, 4-(1-(2,6-difluorophenyl)-4-oxo-4,5-dihydro-1H-pyrazolo[4,3-c]pyridin-3-yl)benzenesulfonamide] | 97 | 99 | –
O=C1NCCN1c1ccc(-c2nn(-c3c(F)cccc3F)c3cc[nH]c(=O)c23)cc1 [Example 276, 1-(2,6-difluorophenyl)-3-(4-(2-oxoimidazolidin-1-yl)phenyl)-1,5-dihydro-4H-pyrazolo[4,3-c]pyridin-4-one] | 99 | 91 | –
O=c1[nH]ccc2c(-c3ccccc3)nn(-c3ccsc3)c12 [Example 11, 3-phenyl-1-(3-thienyl)-1,6-dihydro-7H-pyrazolo[3,4-c]pyridin-7-one] | 66 | 55 | –

Other lines, results leading:

inhibition at 1 µM (Tyk2) [%] | inhibition at 1 µM (JAK1) [%] | inhibition at 10 µM (JAK1) [%] | Compound
94 | 64 | – | N#Cc1c[nH]c(=O)c2c(-c3cccc(C(N)=O)c3)cn(C3CCCC3)c12 [Example 89, 3-(7-cyano-1-cyclopentyl-4-oxo-4,5-dihydro-1H-pyrrolo[3,2-c]pyridin-3-yl)benzamide]
97 | – | 34 | O=c1[nH]cc(Cl)c2c1c(-c1cnn(C3CCOCC3)c1)nn2-c1c(F)cccc1F [Example 205, 7-chloro-1-(2,6-difluorophenyl)-3-(1-(tetrahydro-2H-pyran-4-yl)-1H-pyrazol-4-yl)-1,5-dihydro-4H-pyrazolo[4,3-c]pyridin-4-one]
93 | 59 | – | Cn1ccc(-c2cn(C3CCCC3)c3c(C#N)c[nH]c(=O)c23)n1 [Example 136, 1-cyclopentyl-3-(1-methyl-1H-pyrazol-3-yl)-4-oxo-4,5-dihydro-1H-pyrrolo[3,2-c]pyridine-7-carbonitrile]
70 | 96 | – | CC(C)(C)n1nc(Nc2cccc(S(N)(=O)=O)c2)c2c(=O)[nH]ccc21 [Example 248, 3-((1-tert-butyl-4-oxo-4,5-dihydro-1H-pyrazolo[4,3-c]pyridin-3-yl)amino)benzenesulfonamide]
99 | 99 | – | NC(=O)c1cc(-c2nn([C@H]3CC[C@H](N)CC3)c3cc[nH]c(=O)c23)cs1 [Example 299, 4-(1-(trans-4-aminocyclohexyl)-4-oxo-4,5-dihydro-1H-pyrazolo[4,3-c]pyridin-3-yl)thiophene-2-carboxamide]
35 | 59 | – | CCC(COC)n1cc(-c2ccc(CC#N)cc2)c2c(=O)[nH]ccc21 (stereo not drawn) [Example 20, (4-(1-(1-methoxybutan-2-yl)-4-oxo-4,5-dihydro-1H-pyrrolo[3,2-c]pyridin-3-yl)phenyl)acetonitrile]
90 | 95 | – | NS(=O)(=O)c1ccc(-c2cn([C@H]3CC[C@H](O)CC3)c3cc[nH]c(=O)c23)cc1 [Example 31, 4-(1-(trans-4-hydroxycyclohexyl)-4-oxo-4,5-dihydro-1H-pyrrolo[3,2-c]pyridin-3-yl)benzenesulfonamide]
99 | – | 98 | NS(=O)(=O)c1ccc(-c2nn(-c3ccccc3F)c3cc[nH]c(=O)c23)cc1 [Example 213, 4-(1-(2-fluorophenyl)-4-oxo-4,5-dihydro-1H-pyrazolo[4,3-c]pyridin-3-yl)benzenesulfonamide]
99 | – | 85 | O=c1[nH]cc(Br)c2c1c(-c1ccc(N3CCOCC3)cc1)nn2-c1c(F)cccc1F [Example 218, 7-bromo-1-(2,6-difluorophenyl)-3-(4-(morpholin-4-yl)phenyl)-1,5-dihydro-4H-pyrazolo[4,3-c]pyridin-4-one]
51 | 59 | – | CNC(=O)c1cc(-c2cn(C3CCCC3)c3c(C(=O)NC)c[nH]c(=O)c23)cs1 [Example 63, 1-cyclopentyl-N-methyl-3-(5-(methylcarbamoyl)-3-thienyl)-4-oxo-4,5-dihydro-1H-pyrrolo[3,2-c]pyridine-7-carboxamide]
98 | 92 | – | O=c1[nH]ccc2c1c(-c1cccc(CO)c1)nn2-c1c(F)cccc1F [Example 278, 1-(2,6-difluorophenyl)-3-(3-(hydroxymethyl)phenyl)-1,5-dihydro-4H-pyrazolo[4,3-c]pyridin-4-one-]
91 | 80 | – | NS(=O)(=O)c1ccc(-c2nn(C3CCCC3)c3c(Br)c[nH]c(=O)c23)cc1 [Example 101, 4-(7-bromo-1-cyclopentyl-4-oxo-4,5-dihydro-1H-pyrazolo[4,3-c]pyridin-3-yl)benzenesulfonamide]
96 | 97 | – | COC(=O)c1cc(-c2cn(C3CCCC3)c3cc[nH]c(=O)c23)cs1 [Example 3, methyl 4-(1-cyclopentyl-4-oxo-4,5-dihydro-1H-pyrrolo[3,2-c]pyridin-3-yl)thiophene-2-carboxylate]
